This passage reports EC50 results from patent publication US11319298B2 (Merck Sharp & Dohme Corp., priority 2016, dated 2022).

The structures appear in SMILES notation.

This assay addresses T1, human M4 muscarinic acetylcholine receptor (Homo sapiens, UniProt P08173).
T1 construct: expressed in transfected cells; host or cells: CHO-K1
T1 sequence (P08173 1-479): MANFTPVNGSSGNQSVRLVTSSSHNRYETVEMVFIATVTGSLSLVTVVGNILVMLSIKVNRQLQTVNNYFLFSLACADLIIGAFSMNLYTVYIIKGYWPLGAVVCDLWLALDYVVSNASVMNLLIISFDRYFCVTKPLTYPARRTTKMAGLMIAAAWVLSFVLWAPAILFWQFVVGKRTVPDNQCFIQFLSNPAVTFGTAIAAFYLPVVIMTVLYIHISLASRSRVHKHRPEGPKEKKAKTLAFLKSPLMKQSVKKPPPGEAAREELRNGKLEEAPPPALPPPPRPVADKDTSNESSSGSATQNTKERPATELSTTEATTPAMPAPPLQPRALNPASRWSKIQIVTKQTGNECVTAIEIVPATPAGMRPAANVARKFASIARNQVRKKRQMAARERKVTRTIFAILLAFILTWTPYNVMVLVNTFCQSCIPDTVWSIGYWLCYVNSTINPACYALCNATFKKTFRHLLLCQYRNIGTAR
Nature of the assay: human FLIPR-based M4 PAM assay, CHO-K1 cells stably transfected with human M4 receptor and chimeric G-protein Gαqi5. To be noted: inflection point (IP) of dose response curve; acetylcholine added at 20% of maximum response; CHO-K1 human M4/Gαqi5, FLIPR Tetra. The assay is classed as cell-based. Summed up: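 The FLIPR read recorded 4 min after compound was added across a concentration range, then 3.5 min after acetylcholine giving 20% of its maximal response, with an occasional extra EC70 addition. Cells were dye-loaded for about 1 h at 37 °C. Potency is the curve inflection point from a four-parameter logistic fit.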

For orientation: EC50 means the concentration that produces a half-maximal response. `COc1ccc(OC2CCN(c3nnc(C(=O)NCc4c(C)nc5ccccn45)cc3C)CC2)cn1` [Example 149, 6-{4-[(6-methoxypyridin-3-yl)oxy]piperidin-1-yl}-5-methyl-N-[(2-methylimidazo[1,2-a]pyridin-3-yl)methyl]pyridazine-3-carboxamide]: the midpoint of the response, the EC50, lay at 228 nM. This counts as sub-micromolar.

In the case of `COc1ccc(OC2CCN(c3nnc(C(=O)NCc4ccncn4)cc3C)CC2)cn1` [Example 150, 6-{4-[(6-methoxypyridin-3-yl)oxy]piperidin-1-yl}-5-methyl-N-(pyrimidin-4-ylmethyl)pyridazine-3-carboxamide], the EC50 came out at 233 nM.

For the compound `Cc1cc(C(=O)NCc2ccncc2Cl)nnc1N1CCC(Oc2cccc(C#N)c2)CC1` [Example 151, N-[(3-chloropyridin-4-yl)methyl]-6-[4-(3-cyanophenoxy)piperidin-1-yl]-5-methylpyridazine-3-carboxamide], the EC50 came out at 241 nM. This EC50 and that of the compound before are within 1.5-fold of each other.

In turn, `Cc1cc(C(=O)NCc2ccncc2)nnc1N1CCC(OCC2CC2)CC1` [Example 152] yielded an EC50 of 259 nM.

Consider `COc1ccc(OC2CCN(c3nnc(C(=O)NCc4cccc(C#N)c4)cc3C)CC2)cn1` [Example 153, N-(3-cyanobenzyl)-6-{4-[(6-methoxypyridin-3-yl)oxy]piperidin-1-yl}-5-methylpyridazine-3-carboxamide], for which the midpoint of the response, the EC50, lay at 261 nM.

Turning to `COc1ccc(OC2CCN(c3nnc(C(=O)NCc4ccncc4Cl)cc3C)CC2)cn1` [Example 154, N-[(3-chloropyridin-4-yl)methyl]-6-{4-[(6-methoxypyridin-3-yl)oxy]piperidin-1-yl}-5-methylpyridazine-3-carboxamide], the EC50 turned out to be 262 nM.

As to `COc1ccc(OC2CCN(c3nnc(C(=O)NCc4cc(C)n(C)n4)cc3C)CC2)cn1` [Example 155, N-[(1,5-dimethyl-1H-pyrazol-3-yl)methyl]-6-{4-[(6-methoxypyridin-3-yl)oxy]piperidin-1-yl}-5-methylpyridazine-3-carboxamide], the 50% effective concentration (EC50) stood at 265 nM.

`Cc1ccc(OC2CCN(c3nnc(C(=O)NCc4ccncc4)cc3C)CC2)cc1Cl` [Example 156, 6-[4-(3-chloro-4-methylphenoxy)piperidin-1-yl]-5-methyl-N-(pyridin-4-ylmethyl)pyridazine-3-carboxamide] gave an EC50 of 272 nM.

Regarding `Cc1cc(C(=O)NC2C3CC2C3)nnc1N1CCC(Oc2ccc3c(c2)C(=O)N(C)C3)CC1` (stereo not drawn) [Example 157, N-bicyclo[1.1.1]pent-2-yl-5-methyl-6-{4-[(2-methyl-3-oxo-2,3-dihydro-1H-isoindol-5-yl)oxy]piperidin-1-yl}pyridazine-3-carboxamide], the EC50 stood at 277 nM.

In turn, `COc1ccc(OC2CCN(c3nnc(C(=O)NCc4ccccc4OC)cc3C)CC2)cn1` [Example 158, N-(2-methoxybenzyl)-6-{4-[(6-methoxypyridin-3-yl)oxy]piperidin-1-yl}-5-methylpyridazine-3-carboxamide] yielded a concentration giving a half-maximal response (EC50) of 282 nM. This EC50 and that of the compound before are within 1.5-fold of each other.

For the compound `COc1ccc(OC2CCN(c3nnc(C(=O)NC4CCc5ccncc5C4)cc3C)CC2)cn1` (stereo not drawn) [Example 159, 6-{4-[(6-methoxypyridin-3-yl)oxy]piperidin-1-yl}-5-methyl-N-(5,6,7,8-tetrahydroisoquinolin-7-yl)pyridazine-3-carboxamide], the EC50 amounted to 293 nM.

`Cc1cc(C(=O)NC2CCc3cccnc3C2)nnc1N1CCC(Oc2cccc(C#N)c2)CC1` (stereo not drawn) [Example 160, 6-[4-(3-cyanophenoxy)piperidin-1-yl]-5-methyl-N-(5,6,7,8-tetrahydroquinolin-7-yl)pyridazine-3-carboxamide] registered an EC50 of 295 nM.

In turn, `COc1ccc(OC2CCN(c3nnc(C(=O)NC4CC4)cc3C)CC2)cn1` [Example 161, N-cyclopropyl-6-{4-[(6-methoxypyridin-3-yl)oxy]piperidin-1-yl}-5-methylpyridazine-3-carboxamide] came in with an EC50 of 302 nM.

On to `COc1ccc(OC2CCN(c3nnc(C(=O)NCCn4ccnc4)cc3C)CC2)cn1` [Example 162, N-[2-(1H-imidazol-1-yl)ethyl]-6-{4-[(6-methoxypyridin-3-yl)oxy]piperidin-1-yl}-5-methylpyridazine-3-carboxamide], for which the EC50 is 306 nM.

Take `COc1ccc(OC2CCN(c3nnc(C(=O)NC4CCc5ncccc5C4)cc3C)CC2)cn1` (stereo not drawn) [Example 163, 6-{4-[(6-methoxypyridin-3-yl)oxy]piperidin-1-yl}-5-methyl-N-(5,6,7,8-tetrahydroquinolin-6-yl)pyridazine-3-carboxamide]: it took 325 nM to reach a half-maximal effect (EC50).

Take `Cc1cc(C(=O)N[C@H]2CCc3cccnc3C2)nnc1N1CCC(Oc2cccc(C#N)c2)CC1` [Example 164A, (S)-6-[4-(3-cyanophenoxy)piperidin-1-yl]-5-methyl-N-(5,6,7,8-tetrahydroquinolin-7-yl)pyridazine-3-carboxamide]: the EC50 is 434 nM.

As for `Cc1cc(C(=O)N[C@@H]2CCc3cccnc3C2)nnc1N1CCC(Oc2cccc(C#N)c2)CC1` [Example 164B, (R)-6-[4-(3-cyanophenoxy)piperidin-1-yl]-5-methyl-N-(5,6,7,8-tetrahydroquinolin-7-yl)pyridazine-3-carboxamide], a half-maximal effect (EC50) was put at 338 nM.

The compound `COc1ccc(OC2CCN(c3nnc(C(=O)N[C@@H]4CCc5ccccc5C4)cc3C)CC2)cn1` [Example 165A, (R)-6-{4-[(6-methoxypyridin-3-yl)oxy]piperidin-1-yl}-5-methyl-N-(1,2,3,4-tetrahydronaphthalen-2-yl)pyridazine-3-carboxamide] registered an EC50 of 344 nM.

As for `COc1ccc(OC2CCN(c3nnc(C(=O)N[C@H]4CCc5ccccc5C4)cc3C)CC2)cn1` [Example 165B, (S)-6-{4-[(6-methoxypyridin-3-yl)oxy]piperidin-1-yl}-5-methyl-N-(1,2,3,4-tetrahydronapthalen-2-yl)pyridazine-3-carboxamide], the EC50 worked out at 527 nM.

`COc1ccc(OC2CCN(c3nnc(C(=O)NCc4ccc5c(c4)OCO5)cc3C)CC2)cn1` [Example 166, N-(1,3-benzodioxol-5-ylmethyl)-6-{4-[(6-methoxypyridin-3-yl)oxy]piperidin-1-yl}-5-methylpyridazine-3-carboxamide] gave an EC50 of 400 nM.

As to `COc1ccc(OC2CCN(c3nnc(C(=O)NCc4ncn[nH]4)cc3C)CC2)cn1` [Example 167, 6-{4-[(6-methoxypyridin-3-yl)oxy]piperidin-1-yl}-5-methyl-N-(1H-1,2,4-triazol-5-ylmethyl)pyridazine-3-carboxamide], the 50% effective concentration (EC50) was 417 nM.

Take `COc1ccc(OC2CCN(c3nnc(C(=O)NC4CCc5cc(F)ccc5C4)cc3C)CC2)cn1` (stereo not drawn) [Example 168, N-(6-fluoro-1,2,3,4-tetrahydronaphthalen-2-yl)-6-{4-[(6-methoxypyridin-3-yl)oxy]piperidin-1-yl}-5-methylpyridazine-3-carboxamide]: it took 446 nM to reach a half-maximal effect (EC50).

`COc1ccc(OC2CCN(c3nnc(C(=O)NC4CCCC4)cc3C)CC2)cn1` [Example 169, N-cyclopentyl-6-{4-[(6-methoxypyridin-3-yl)oxy]piperidin-1-yl}-5-methylpyridazine-3-carboxamide] had an EC50 of 459 nM. The EC50 values of the last two compounds are within 1.5-fold of each other.

For `COc1ccc(OC2CCN(c3nnc(C(=O)NC4CCc5cccnc54)cc3C)CC2)cn1` (stereo not drawn) [Example 170, N-(6,7-dihdyro-5H-cyclopenta[b]pyridin-7-yl)-6-{4-[(6-methoxypyridin-3-yl)oxy]piperidin-1-yl}-5-methylpyridazine-3-carboxamide], the response was half-maximal at 465 nM (EC50).
